Series [1] concerns clinically isolated S.mutans strains. Put plainly: MIC against clinically isolated S. mutans strains. The class given is cell-based. The following applies: Streptococcus mutans. An excerpt:
Peptide and different pH of culture medium prepared. The pH of BHI medium […]
was adjusted by HCl and NaOH. […]
Isolation and culture of clinical S.mutans strains. Ethical approval of the study and the written consent/permission forms were obtained from Institutional Review Board (IRB) at Hunan Normal University prior to the study. For each child, written permission form was reviewed and signed by their legal guardians. Plaque -biofilm samples were collected from patients, including 16 Middle-aged and young patients and 4 children (age between 48 and 72 months) diagnosed with severe early childhood caries (S-ECC) in Changsha Stomatological Hospital. After being collected using a sterilized periodontal scaler, pooled plaque samples were transferred into 1 mL thiolglycollate solution, covered with 0.5 mL sterile paraffin wax and immediately transported to the laboratory for isolation. In order to sufficient disperse the aggregates, samples should be gently vortexed and sonicated before isolation. A series of diluted dispersed samples were plated on TYCSB at 37 °C under anaerobic conditions. Then, the suspicious clones were selected and plated on the mitis salivarius agar (MSA) plus bacitracin at 37 °C under anaerobic conditions for further isolation. The isolated S.mutans were most of identified by mass spectrometry and all identified by microbiochemical reaction again. All isolated S.mutans were stored with glycerol for subsequent experiments.
Minimal inhibition concentration (MIC) determination . S.mutans UA159 (ATCC 700610) and 20 clinical S.mutans strains were used. S.mutans UA159 was purchased from Shanghai Biofeng Biotechnology Co., LTD. These bacteria grown in brain heart infusion broth (BHI, Beijing Land Bridge, China) at 37 °C under anaerobic conditions.
Due to bacteria incubation under the condition of excessive acid for a long time will affect its vitality, therefore, pH 5.5 was choose as acidic condition for the MIC determination. Peptides and CHX were dissolved in BHI medium of different pHs (pH 5.5 and 7.0) using serial dilutions to obtain different diluted solutions. 2 µL of bacteria (1×10^7 CFU (colony forming units) in the logarithmic phase were added into each well of 96-well plates containing 200 µL different diluted solutions. Note that […]
the aggregate behavior of peptides. In order to avoid interfering with the MIC test, it is important to set up the control wells which only contain different concentrations of peptides in BHI medium of different pHs. The absorbance at 600 nm was detected with a microplate reader (Multiskan Spectrum, BioTek Inc., USA) after 48 h. The inhibition rate of drugs on bacteria was calculated based on the absorbance […]
The SYTO 9 / PI double staining and scanning electron microscopy (SEM) were also performed to evaluate the bacterial killing and bacterial membrane disruption.
For SYTO 9/PI double staining, pHly -1 NPs was added to actively growing S. mutans UA159 (10^6 CFU/m L) at the concentration of 22 μM at pH 4.5 or pH 7.0, after 1 h incubation, the bacteria treated were imaged by using LIVE/DEAD BacLight Bacterial Viability Kit (Thermo Fisher Scientific). SYTO 9 and PI were added according to the manufacturer ’s protocol and used for labeling […]
bacteria. […]
For SEM, S. mutans UA159 was treated by the same way to SYTO 9/PI double staining asay and then harvested, washed, and then fixed in 2.5 % glutaraldehyde for 3 h. After dehydration by serial concentrations of ethanol solutions (10%, 25%, 50%, 75%, 95%, and 100%) and lyophiliz ation overnight, the lyophilized samples were coated with goldand then photographed by SEM.

A further series concerns fresh mice erythrocytes. The class given is cell-based, mouse. The following applies: 30 min, PBS pH 7.4. From the text: Peptide and different pH of culture medium prepared. The pH of BHI medium was adjusted by HCl and NaOH. All peptides, including lycosin- I, pHly-1, s-pHly-1 were synthesized on a Rink amide-AM resin using the SPPS
(9- fluorenyl-methoxycarbonyl solid-phase peptide synthesis) method as reported previously1. Then peptides were cleaved from the resin using TFA/1,2- ethanedithiol/thioanisole/anisole (90/5/3/2 (v/v)), precipitated in cold diethyl ether and the collected precipitate was dried by air -drying . The prepared peptides were purified by reverse phase- HPLC (RP-HPLC) and their molecular weights were determined by MALDI-TOF MS.
Hemolytic assay. Approximately 4 % (in volume) of the mouse erythrocyte s were prepared by diluting fresh erythrocytes to 25-fold dilution with PBS buffer (pH 7.4).
The stock peptide solution ([…]) diluted by PBS solution to reach various concentrations (200 μL) was placed in a 1.5 mL sterile microfuge tube, followed by the addition of 200 μ L o f erythrocyte suspension. The mixture was incubated at 37 °C for 30 min. Then, the mixture was centrifuged at 3,500 rpm for 5 min to collect the supernatant. Aliquots (100 μL) of the supernatant were removed to 96-well plates, and the absorbance was detected at 450 nm using a microplate reader (Multiskan Spectrum, BioTek Inc., USA). Untreated erythrocyte suspension in an equal volume of PBS solution and 0.1% Triton X-100 were used as the negative control and positive […]
Isolation and culture of clinical S.mutans strains. Ethical approval of the study and the written consent/permission forms were obtained from Institutional Review Board (IRB) at Hunan Normal University prior to the study. For each child, written permission form was reviewed and signed by their legal guardians. Plaque -biofilm samples were collected from patients, including 16 Middle-aged and young patients and 4 children (age between 48 and 72 months) diagnosed with severe early childhood caries (S-ECC) in Changsha Stomatological Hospital. […]

Values after ≈ are worked out from the molar mass of the structure shown. Like-named read-outs stand apart in the source and are kept apart here. No end group written: not given here.

For the molecule `[H]/N=C(\N/C(=N/[H])NCCCCCCNC(=N)NC(=N)Nc1ccc(Cl)cc1)Nc1ccc(Cl)cc1` [CHX, chlorhexidine], the MIC in series [1] (pH 5.5, pH 5.5, range over 20 clinical strains, read-out: MIC values against 20 bacterial strains) is 0.5 to 2 µM (≈ 0.253 to 1.01 µg/mL); in series [1] (pH 5.5, strain CS-1, pH 5.5, 5 repetitions, read-out: MIC) it was 1 µM (≈ 0.505 µg/mL); in series [1] (pH 5.5, strain CS-2, pH 5.5, 5 repetitions, read-out: MIC), 0.5 µM (≈ 0.253 µg/mL); in series [1] (pH 5.5, strain CS-3, pH 5.5, 5 repetitions, read-out: MIC), 1 µM (≈ 0.505 µg/mL); in series [1] (pH 5.5, strain CS-4, pH 5.5, 5 repetitions, read-out: MIC), 1 µM (≈ 0.505 µg/mL); in series [1] (pH 5.5, strain CS-5, pH 5.5, 5 repetitions, read-out: MIC), 2 µM (≈ 1.01 µg/mL). Moreover, the MIC in series [1] (pH 5.5, strain CS-6, pH 5.5, 5 repetitions, read-out: MIC) came to 1 µM (≈ 0.505 µg/mL); in series [1] (pH 5.5, strain CS-7, pH 5.5, 5 repetitions, read-out: MIC), 1 µM (≈ 0.505 µg/mL); in series [1] (pH 5.5, strain CS-8, pH 5.5, 5 repetitions, read-out: MIC), 2 µM (≈ 1.01 µg/mL); in series [1] (pH 5.5, strain CS-9, pH 5.5, 5 repetitions, read-out: MIC), 2 µM (≈ 1.01 µg/mL); in series [1] (pH 5.5, strain CS-10, pH 5.5, 5 repetitions, read-out: MIC), 1 µM (≈ 0.505 µg/mL); in series [1] (pH 5.5, strain CS-11, pH 5.5, 5 repetitions, read-out: MIC), 1 µM (≈ 0.505 µg/mL). The MIC turned out to be 0.5 µM (≈ 0.253 µg/mL) in series [1] (pH 5.5, strain CS-12, pH 5.5, 5 repetitions, read-out: MIC); 1 µM (≈ 0.505 µg/mL) in series [1] (pH 5.5, strain CS-13, pH 5.5, 5 repetitions, read-out: MIC); 1 µM (≈ 0.505 µg/mL) in series [1] (pH 5.5, strain CS-14, pH 5.5, 5 repetitions, read-out: MIC); 2 µM (≈ 1.01 µg/mL) in series [1] (pH 5.5, strain CS-15, pH 5.5, 5 repetitions, read-out: MIC); 1 µM (≈ 0.505 µg/mL) in series [1] (pH 5.5, strain CS-16, pH 5.5, 5 repetitions, read-out: MIC); 1 µM (≈ 0.505 µg/mL) in series [1] (pH 5.5, strain CS-17 (S-ECC child), pH 5.5, 5 repetitions, read-out: MIC). Moreover, the minimal inhibitory concentration (MIC) turned out to be 2 µM (≈ 1.01 µg/mL) in series [1] (pH 5.5, strain CS-18 (S-ECC child), pH 5.5, 5 repetitions, read-out: MIC); 2 µM (≈ 1.01 µg/mL) in series [1] (pH 5.5, strain CS-19 (S-ECC child), pH 5.5, 5 repetitions, read-out: MIC); 2 µM (≈ 1.01 µg/mL) in series [1] (pH 5.5, strain CS-20 (S-ECC child), pH 5.5, 5 repetitions, read-out: MIC).
As to “KIWFHAMHIIAHFIAHQHLHQHL-NH2 [pHly-1 NPs]”, the hemolysis entry with fresh mice erythrocytes (500 μM) is given as “about 20%”. Also, the HC50 in the series with fresh mice erythrocytes (37 °C) was above 500 µM.

A word on the MIC: it is the least concentration at which growth counts as inhibited. As usually defined, the HC50 is the concentration giving 50% haemolysis. A lower HC50 goes with stronger haemolysis.

These data come from paper PMC9254247, “Dual-sensitive antibacterial peptide nanoparticles prevent dental caries” (Theranostics, 2022).
